Test results from patent USRE47689E1, “Compounds for treating spinal muscular atrophy” (PTC Therapeutics, Inc., priority 2011, dated 2019).
Where two headings read alike, the source gives them in different places.

How the values were obtained:
[1] = system: SMN2 minigene (full length SMN2 minigene mRNA containing SMN2 exon 7); assay: SMN2 minigene mRNA splicing RT-qPCR assay in cultured cells; type: cell-based, human; conditions: Homo sapiens, HEK293-H, read-out: EC1.5x for production of full length SMN2 mRNA
Outline: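 Read-out: full-length (exon 7-included) SMN2 minigene mRNA by multiplex RT-qPCR with GAPDH, efficiency-corrected (1+E)^−Ct, GAPDH-normalized and divided by vehicle. Stably transfected HEK293H cells, 24 h compound exposure, duplicates per concentration. Value is EC1.5x, reported as star ranges.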

Smn protein = Smn protein assay in cultured cells (SMN HTRF); type: cell-based, human; conditions: 48 hours; for maximum fold (Fold) increase of Smn protein: SMA patient fibroblast cells, 7-point concentration data, fold increase relative to vehicle control (SMN HTRF); for EC1.5x (concentration giving 1.5-fold Smn protein increase): SMA Type 1 patient fibroblast cells (GM03813), 7-point concentration curve, SMN HTRF, concentration producing 1.5 times Smn protein vs DMSO vehicle control, read-out: EC1.5x for Smn protein expression
Outline: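 Lysates in RIPA with protease inhibitors are incubated overnight at room temperature with HTRF anti-SMN antibodies. EC1.5x is derived from fold increase in ΔF over vehicle.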

[2] = HEK293H cells stably transfected with SMN2-A minigene, 24 hours, 7-point concentration curve, 1.5-fold relative to vehicle-treated cells

| melting point | SMILES | EC (1.5-fold) [1, 2] | maximum fold (Fold) increase of Smn protein (Smn protein) | EC1.5x (concentration giving 1.5-fold Smn protein increase) (Smn protein) | EC (1.5-fold) ([1]; 24 h) |
| --- | --- | --- | --- | --- | --- |
| 188 to 192 °C | C[C@H]1CN(c2ccc3cc(-c4cn5cccc(F)c5n4)c(=O)oc3c2)CCN1C [Compound 585, 7-[(3S)-3,4-dimethylpiperazin-1-yl]-3-(8-fluoroimidazo[1,2-a]pyridin-2-yl)-2H-chromen-2-one] | 0.3 to 1 µM | *** (fold increase between >1.35 and ≤1.5) | – | – |
| 146 to 150 °C | Cc1cn2cc(-c3cc4ccc(N5C[C@H]6CN(C)C[C@H]6C5)cc4oc3=O)cc2c(C)n1 [Compound 756, 3-(1,3-dimethylpyrrolo[1,2-a]pyrazin-7-yl)-7-[(3aR,6aS)-5-methylhexahydropyrrolo[3,4-c]pyrrol-2(1H)-yl]-2H-chromen-2-one] | < 0.1 µM | *** (fold increase between >1.35 and ≤1.5) | – | – |
| 147 to 150 °C | COCCNCCCc1ccc2cc(-c3cn4cc(C)nc(C)c4n3)c(=O)oc2c1 [Compound 931, 3-(6,8-dimethylimidazo[1,2-a]pyrazin-2-yl)-7-{3-[(2-methoxyethyl)amino]propyl}-2H-chromen-2-one] | < 0.1 µM | **** (fold increase between >1.5 and ≤1.65) | 300 to 1000 nM | – |
| 170 to 173 °C | Cc1cn2cc(-c3cc4ccc(N5CCN6CCC[C@@H]6C5)cc4oc3=O)cc2c(C)n1 [Compound 669, 3-(1,3-dimethylpyrrolo[1,2-a]pyrazin-7-yl)-7-[(8aR)-hexahydropyrrolo[1,2-a]pyrazin-2(1H)-yl]-2H-chromen-2-one] | < 0.1 µM | ***** (fold increase >1.65) | < 300 nM | – |
| 212 to 216 °C | CCN(CC)CCCCc1ccc2cc(-c3cn4cc(C)nc(C)c4n3)c(=O)oc2c1 [Compound 970, 7-[4-(diethylamino)butyl]-3-(6,8-dimethylimidazo[1,2-a]pyrazin-2-yl)-2H-chromen-2-one] | 0.3 to 1 µM | ***** (fold increase >1.65) | 300 to 1000 nM | – |
| 211 to 215 °C | CCC1CN(c2ccc3cc(-c4cn5cc(C)nc(C)c5n4)c(=O)oc3c2)CCN1 (stereo not shown) [Compound 665, 3-(6,8-dimethylimidazo[1,2-a]pyrazin-2-yl)-7-(3-ethylpiperazin-1-yl)-2H-chromen-2-one] | < 0.1 µM | ***** (fold increase >1.65) | < 300 nM | – |
| 192 to 197 °C | Cc1cn2cc(-c3cc4ccc(CCNC(C)C)cc4oc3=O)nc2c(C)n1 [Compound 865, 3-(6,8-dimethylimidazo[1,2-a]pyrazin-2-yl)-7-[2-(propan-2-ylamino)ethyl]-2H-chromen-2-one] | < 0.1 µM | **** (fold increase between >1.5 and ≤1.65) | 1000 to 3000 nM | – |
| 305 to 307 °C | O=c1oc2cc(N3CCCNCC3)cc(F)c2cc1-c1cn2cccnc2n1 [Compound 336, 7-(1,4-diazepan-1-yl)-5-fluoro-3-(imidazo[1,2-a]pyrimidin-2-yl)-2H-chromen-2-one] | 0.3 to 1 µM | * (maximum fold increase of ≤1.2) | – | – |
| 249 to 258 °C | Cc1cn2cc(-c3cc4ccc(N5C[C@@H]6CN(C(C)C)C[C@@H]6C5)cc4oc3=O)nc2c(C)n1 [Compound 743, 3-(6,8-dimethylimidazo[1,2-a]pyrazin-2-yl)-7-[(3aR,6aS)-5-(propan-2-yl)hexahydropyrrolo[3,4-c]pyrrol-2(1H)-yl]-2H-chromen-2-one] | < 0.1 µM | ***** (fold increase >1.65) | < 300 nM | – |
| 217 to 220 °C | CN1CCCN(c2ccc3cc(-c4nc5ccccc5s4)c(=O)oc3c2)CC1 [Cpd 145, 3-(1,3-benzothiazol-2-yl)-7-(4-methyl-1,4-diazepan-1-yl)-2H-chromen-2-one] | 0.1 to 0.3 µM | ** (fold increase between >1.2 and ≤1.35) | – | – |
| 269 to 277 °C | Cc1cc(F)c2nc(-c3cc4ccc(N5CCN(C)[C@H](C)C5)cc4oc3=O)cn2c1 [Compound 533, 7-[(3R)-3,4-dimethylpiperazin-1-yl]-3-(8-fluoro-6-methylimidazo[1,2-a]pyridin-2-yl)-2H-chromen-2-one] | < 0.1 µM | **** (fold increase between >1.5 and ≤1.65) | < 300 nM | – |
| 204 to 208 °C | CNCCc1ccc2cc(-c3cn4cc(C)nc(C)c4n3)c(=O)oc2c1 [Compound 911, 3-(6,8-dimethylimidazo[1,2-a]pyrazin-2-yl)-7-[2-(methylamino)ethyl]-2H-chromen-2-one] | < 0.1 µM | ***** (fold increase >1.65) | < 300 nM | – |
| 206 to 211 °C | Cc1cn2cc(-c3cc4ccc(C5CCN(C(C)C)CC5)cc4oc3=O)nc2c(C)n1 [Cpd 773, 3-(6,8-dimethylimidazo[1,2-a]pyrazin-2-yl)-7-[1-(propan-2-yl)piperidin-4-yl]-2H-chromen-2-one] | < 0.1 µM | **** (fold increase between >1.5 and ≤1.65) | < 300 nM | – |
| 234 to 244 °C | Cc1ccn2cc(-c3cc4ccc(N5CCN[C@@H](C)C5)cc4oc3=O)nc2c1 [Compound 213, 3-(7-methylimidazo[1,2-a]pyridin-2-yl)-7-[(3S)-3-methylpiperazin-1-yl]-2H-chromen-2-one] | 0.1 to 0.3 µM | *** (fold increase between >1.35 and ≤1.5) | – | – |
| 226 to 228 °C | C[C@@H]1CN(c2ccc3cc(-c4cn5cccc(F)c5n4)c(=O)oc3c2)CCN1 [Compound 530, 3-(8-fluoroimidazo[1,2-a]pyridin-2-yl)-7-[(3R)-3-methylpiperazin-1-yl]-2H-chromen-2-one] | 0.3 to 1 µM | **** (fold increase between >1.5 and ≤1.65) | < 300 nM | – |
| 236 to 238 °C | O=c1oc2cc(N3CCNCC3)ccc2cc1-c1cn2cccc(F)c2n1 [Compound 149, 3-(8-fluoroimidazo[1,2-a]pyridin-2-yl)-7-(piperazin-1-yl)-2H-chromen-2-one] | 1 to 3 µM | *** (fold increase between >1.35 and ≤1.5) | – | – |
| 186 to 189 °C | Cc1cc2cc(-c3cc4ccc(N5CCN(C(C)C)CC5)cc4oc3=O)oc2c(C)n1 [Compound 789, 3-(5,7-dimethylfuro[2,3-c]pyridin-2-yl)-7-[4-(propan-2-yl)piperazin-1-yl]-2H-chromen-2-one] | < 0.1 µM | *** (fold increase between >1.35 and ≤1.5) | – | – |

| SMILES | melting point | EC (1.5-fold) [1, 2] | maximum fold (Fold) increase of Smn protein (Smn protein) | EC1.5x (concentration giving 1.5-fold Smn protein increase) (Smn protein) | EC (1.5-fold) ([1]; 24 h) |
| --- | --- | --- | --- | --- | --- |
| O=c1oc2cc(N3CCNCC3)ccc2cc1-c1cnccc1Cl [Compound 235, 3-(4-chloropyridin-3-yl)-7-(piperazin-1-yl)-2H-chromen-2-one] | 175 to 177 °C | – | * (maximum fold increase of ≤1.2) | – | 1 to 3 µM |
